# US8058228B2, “Leptin peptide antagonists” (Boston Biomedical Research Institute, priority 2004, dated 2011)
# Entries after “also recorded” stand apart in the source; their conditions may differ.
# Tests used:
# Type in all cases: cell-based
# OB-R [1] = assay: LIF-R expression by rabbit endometrial cells (immunocytochemistry, Western blot); conditions: leptin 3 nM; for effect on leptin up-regulation of LIF-R expression: rESC (immunocytochemistry) and rEEC (Western blot), LPA-2 30 and 120 nM; for LIF-R expression after leptin: rESC and rEEC
# Procedure: (§1) Rabbit endometrial cells (5×10^5 cells/well) were cultured for 5-9 days in DMEM-MCDB105 (3:1) medium containing 10% fetal bovine serum (FBS), 5 μg/ml insulin, 1% amphopthericin B, 100 μg/ml streptomycin and 100 U/ml penicillin until confluent layers were obtained. The cells were washed twice with 100 mM phosphate saline buffer (PBS) −2% BSA (w/v), pH 7.2 and cultured for an additional 2 days in the same medium but without FBS (basal medium). This procedure was performed to reduce any effects of cytokines from FBS on the phosphorylation rate of Stat3 as well as the expression of other cytokines and their receptors. Cells were washed as described before and cultured in basal medium containing leptin (0-10 nM), OB-R antibody (1-20 μg/ml) and/or LPA-2 peptides (0-300 nM). Cultures were stopped at 24 h and the cells were used for immunocytochemistry, binding studies and western blot analysis. The conditioned media were collected, lyophilized and stored at −80° C. for ELISA determinations. Duplicate wells were run for each treatment and the experiments repeated at least three times with different cell preparations from different rabbits. Controls were the same cellular preparations cultured in basal medium containing non-specific goat IgGs and LPA-2Sc.
# The rabbit endometrial cells were cultured as described above in duplicate on 8-well glass-bottom culture plates (Nalgene Nunc International, Naperville, Ill.) and fixed with methanol at −20° C. for 20 min for immunocytochemical studies. All the antibodies tested were diluted in PBS-2% BSA (w/v; buffer A).
# Anti IL-1R tl (1 μg/ml), anti LIF-R (2 μg/ml), anti vimentin (1:50), anti cytokeratin (1:50) and anti p-Stat3 (1 μg/ml) antibodies were used to assess the expression of the respective antigens by rEEC and rESC cultures. After incubation with primary antibodies the cells were incubated with a streptavidin-biotin-alkaline phosphatase system according to the manufacturer directions (Vectastain, ABC-AP kit, Vector Laboratories, Burlingame, Calif.) and counter-stained with hematoxylin (Dako). Negative controls included cell preparations in which the primary antibodies were substituted by irrelevant species matched IgGs.
# (§2) After culture in the presence of leptin, LPAs or antibodies, the endometrial cells were washed with ice-cold PBS and lysed by homogenization on ice with lysis buffer [[…] Tris, pH 7.4, containing […] NaCl, 2 mM EDTA, 10% glycerol, 50 mM β-glycerophosphate, […] NaF, 1% Nonidet P-40, 2 mM phenyl-methylsulfonyl fluoride, 2 mM sodium orthovanadate, 100 μM antipain, 0.1 mg/ml trypsin inhibitor and protease cocktail inhibitor 1:50 (Sigma)]. […] Protein concentrations were determined using the Bradford protein assay (BioRad Laboratories Inc., Hercules, Calif.). […]
# OB-R [2] = assay: OB-R expression by rabbit endometrial cells (immunocytochemistry, Western blot); conditions: cultures of rESC or rEEC
# Procedure: Rabbit endometrial cells (5×10^5 cells/well) were cultured for 5-9 days in DMEM-MCDB105 (3:1) medium containing 10% fetal bovine serum (FBS), 5 μg/ml insulin, 1% amphopthericin B, 100 μg/ml streptomycin and 100 U/ml penicillin until confluent layers were obtained. The cells were washed twice with 100 mM phosphate saline buffer (PBS) −2% BSA (w/v), pH 7.2 and cultured for an additional 2 days in the same medium but without FBS (basal medium). This procedure was performed to reduce any effects of cytokines from FBS on the phosphorylation rate of Stat3 as well as the expression of other cytokines and their receptors. […]
# The expression of OB-R was assessed by incubation of rEC for 1 h at room temperature with goat antibodies directed towards the amino terminal ends of human OB-R (R&D system) diluted 1:80 in buffer A.
# as §2
# OB-R [3] = assay: LIF secretion by rabbit endometrial cell cultures (ELISA)
# Procedure: as §1
# IL-1β from rabbits and humans have sequence differences, but no data is available concerning the sequence of rabbit LIF. In addition, there are no commercial kits for measuring rabbit IL-1β or LIF. […] Conditioned media (n=3 per treatment) from rESC and rEEC cultured in the experimental conditions described above were used to quantify the secretion of LIF by ELISA (LIF-Quantikine®, R&D Systems). Standards, controls, and samples were assayed in duplicate. The intra- and interassay coefficients of variations were between 0.7-12% and 3-7%, respectively.
Substance,effect on leptin up-regulation of LIF-R expression (OB-R [1]),expression of OB-R (OB-R [2]),"effect on leptin induction of LIF secretion (OB-R [3]; rEEC, leptin 3 nM with LPA-2 3 to 300 nM, OB-R antibody 20 μg/ml)","effect on leptin-induced LIF secretion at the higher leptin dose (OB-R [3]; rEEC, leptin 10 nM, equimolar LPA-2 (10 nM))",LIF-R expression after leptin (OB-R [1]),LIF-R expression after leptin (OB-R [1]; listed as Leptin),"LIF secretion after leptin (OB-R [3]; rEEC and rESC, more evident in rEEC)"
"SRNVIQISNDLENLRDLLHVLAFSKS [LPA-2, 26 amino acid peptide, residues 70-95 of helix III of the human leptin molecule; leptin peptide antagonist]",totally inhibited the leptin effect on LIF-R expression,did not affect the expression of OB-R,significantly inhibited the leptin (3 nM) induction of LIF secretion,effectively inhibited; also recorded: completely inhibited,–,–,–
"VAEVLNRSDLIQRISFSLDLNNSKLH [LPA-2Sc, scrambled version of LPA-2, negative control, reference compound]",did not prevent the leptin up-regulation of LIF-R,–,–,–,–,–,–
"leptin: human recombinant leptin (R&D Systems), OB-R ligand used as stimulus",–,did not affect the expression of OB-R,–,–,up-regulates the expression of LIF-R,significantly increases the expression of LIF-R,increased LIF secretion in a dose-dependent manner
